Tests used:
Assay type in all cases: biochemical
[1] = target: c-Met (Homo sapiens, UniProt P08581); experiment: Ki determination for the inhibition of c-Met (coupled enzyme system); conditions: 200 μM ATP, 10 μM polyGluTyr, 80 nM c-Met, 30° C.
Method: Compounds were screened for their ability to inhibit c-Met kinase activity using a standard coupled enzyme system (Fox et al., Protein Sci. 1998, 7, 2249). Reactions were carried out in a solution containing 100 mM HEPES (pH 7.5), 10 mM MgCl2, 25 mM NaCl, 300 μM NADH, 1 mM DTT, and 1.5% DMSO. Final substrate concentrations in the assay were 200 μM ATP (Sigma Chemicals, St Louis, Mo.) and 10 μM polyGluTyr (Sigma Chemical Company, St. Louis). Reactions were carried out at 30° C. and 80 nM c-Met. Final concentrations of the components of the coupled enzyme system were 2.5 mM phosphoenolpyruvate, 300 μM NADH, 30 μg/ml pyruvate kinase and 10 μg/ml lactate dehydrogenase.
An assay stock buffer solution was prepared containing all of the reagents listed above with the exception of ATP and a test compound of the present invention. The assay stock buffer solution (175 μl) was incubated in a 96 well plate with 5 μl of the test compound of the present invention at final concentrations spanning 0.006 μM to 12.5 μM at 30° C. for 10 minutes. […] Rates of reaction were obtained using a Molecular Devices Spectramax plate reader (Sunnyvale, Calif.) over 10 minutes at 30° C. The Ki values were determined from the rate data as a function of inhibitor concentration.

[2] = target: T1, JAK3 (Homo sapiens, UniProt P52333); experiment: JAK3 inhibition assay (33P incorporation); conditions: 5 uM ATP, 1 uM poly(Glu)4Tyr, 1 nM JAK3, 25C
T1 sequence (P52333 1-1124): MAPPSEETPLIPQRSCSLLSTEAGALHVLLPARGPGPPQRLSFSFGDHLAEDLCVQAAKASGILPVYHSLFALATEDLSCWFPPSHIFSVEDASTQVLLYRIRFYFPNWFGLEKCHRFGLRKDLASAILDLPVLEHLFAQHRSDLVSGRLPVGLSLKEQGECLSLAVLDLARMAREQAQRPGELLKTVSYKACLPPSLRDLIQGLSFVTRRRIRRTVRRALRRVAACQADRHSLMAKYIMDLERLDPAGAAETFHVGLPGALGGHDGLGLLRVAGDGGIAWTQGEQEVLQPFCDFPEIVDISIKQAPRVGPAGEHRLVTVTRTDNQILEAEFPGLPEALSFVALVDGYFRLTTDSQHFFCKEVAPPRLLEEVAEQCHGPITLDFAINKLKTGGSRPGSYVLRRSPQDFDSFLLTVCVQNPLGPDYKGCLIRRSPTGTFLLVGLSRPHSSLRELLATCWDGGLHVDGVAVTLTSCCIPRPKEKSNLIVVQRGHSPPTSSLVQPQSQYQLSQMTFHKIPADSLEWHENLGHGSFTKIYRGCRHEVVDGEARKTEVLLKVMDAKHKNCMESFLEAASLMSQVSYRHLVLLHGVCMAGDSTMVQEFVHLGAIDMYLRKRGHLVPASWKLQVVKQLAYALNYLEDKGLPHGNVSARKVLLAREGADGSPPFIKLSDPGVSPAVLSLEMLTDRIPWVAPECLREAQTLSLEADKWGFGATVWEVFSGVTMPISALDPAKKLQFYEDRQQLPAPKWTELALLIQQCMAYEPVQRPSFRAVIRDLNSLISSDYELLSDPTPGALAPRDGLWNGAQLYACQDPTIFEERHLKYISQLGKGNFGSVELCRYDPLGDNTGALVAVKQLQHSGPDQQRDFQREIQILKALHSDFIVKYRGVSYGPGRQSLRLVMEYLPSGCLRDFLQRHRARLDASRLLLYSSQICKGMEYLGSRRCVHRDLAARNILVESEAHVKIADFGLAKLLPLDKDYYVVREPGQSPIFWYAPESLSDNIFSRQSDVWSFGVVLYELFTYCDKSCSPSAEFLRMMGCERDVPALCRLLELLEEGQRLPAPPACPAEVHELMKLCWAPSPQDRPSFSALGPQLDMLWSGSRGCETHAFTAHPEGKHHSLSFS
Method: • kinase buffer: (100 mM HEPES pH 7.4; 1 mM DTT; 10 mM MgCl2; 25 mM NaCl; and 0.01% BSA) • 1 nM JAK3 (enzyme) • 1 uM poly(Glu)4Tyr (substrate) • 5 uM ATP (substrate, 200 uCi/umole ATP) Procedure
To each well of a 96 well polycarbonate plate is added 1.5 ul of a candidate JAK3 inhibitor along with 50 ul of kinase buffer containing 2 uM poly(Glu)4Tyr and 10 uM ATP. This is then mixed and 50 ul of kinase buffer containing 2 nM JAK3 enzyme is added to start the reaction. After 20 minutes at room temperature (25C), the reaction is stopped with 50 ul of 20% trichloroacetic acid (TCA) that also contains 0.4 mM ATP. The entire content of each well is then transferred to a 96 well glass fiber filter plate using a TomTek Cell Harvester. After washing, 60 ul of scintillation fluid is added and 33P incorporation detected on a Perkin Elmer TopCount.

[3] = target: KDR (Homo sapiens, UniProt P35968); experiment: KDR enzyme assay (coupled enzyme assay); conditions: 300 μM ATP, 10 μM poly E4Y, 30 nM KDR, 37° C.; read-out: Ki value, inhibition of KDR
Method: Compounds were screened for their ability to inhibit KDR using a standard coupled enzyme assay (Fox et al., Protein Sci., (1998) 7, 2249). Assays were carried out in a mixture of 200 mM HEPES 7.5, 10 mM MgCl2, 25 mM NaCl, 1 mM DTT and 1.5% DMSO. Final substrate concentrations in the assay were 300 μM ATP (Sigma Chemicals) and 10 μM poly E4Y (Sigma). Assays were carried out at 37° C. and 30 nM KDR. Final concentrations of the components of the coupled enzyme system were 2.5 mM phosphoenolpyruvate, 200 μM NADH, 30 μg/ML pyruvate kinase and 10 μg/ml lactate dehydrogenase.
An assay stock buffer solution was prepared containing all of the reagents listed above, with the exception of ATP and the test compound of interest. 177 μl of the stock solution was placed in a 96 well plate followed by addition of 3 μl of 2 mM DMSO stock containing the test compound (final compound concentration 30 μM). The plate was preincubated for about 10 minutes at 37° C. and the reaction initiated by addition of 20 μl of ATP (final concentration 300 μM). Rates of reaction were obtained using a Molecular Devices plate reader (Sunnyvale, Calif.) over a 5 minute read time at 37° C.

c-Met, sequence (P08581 25-1390): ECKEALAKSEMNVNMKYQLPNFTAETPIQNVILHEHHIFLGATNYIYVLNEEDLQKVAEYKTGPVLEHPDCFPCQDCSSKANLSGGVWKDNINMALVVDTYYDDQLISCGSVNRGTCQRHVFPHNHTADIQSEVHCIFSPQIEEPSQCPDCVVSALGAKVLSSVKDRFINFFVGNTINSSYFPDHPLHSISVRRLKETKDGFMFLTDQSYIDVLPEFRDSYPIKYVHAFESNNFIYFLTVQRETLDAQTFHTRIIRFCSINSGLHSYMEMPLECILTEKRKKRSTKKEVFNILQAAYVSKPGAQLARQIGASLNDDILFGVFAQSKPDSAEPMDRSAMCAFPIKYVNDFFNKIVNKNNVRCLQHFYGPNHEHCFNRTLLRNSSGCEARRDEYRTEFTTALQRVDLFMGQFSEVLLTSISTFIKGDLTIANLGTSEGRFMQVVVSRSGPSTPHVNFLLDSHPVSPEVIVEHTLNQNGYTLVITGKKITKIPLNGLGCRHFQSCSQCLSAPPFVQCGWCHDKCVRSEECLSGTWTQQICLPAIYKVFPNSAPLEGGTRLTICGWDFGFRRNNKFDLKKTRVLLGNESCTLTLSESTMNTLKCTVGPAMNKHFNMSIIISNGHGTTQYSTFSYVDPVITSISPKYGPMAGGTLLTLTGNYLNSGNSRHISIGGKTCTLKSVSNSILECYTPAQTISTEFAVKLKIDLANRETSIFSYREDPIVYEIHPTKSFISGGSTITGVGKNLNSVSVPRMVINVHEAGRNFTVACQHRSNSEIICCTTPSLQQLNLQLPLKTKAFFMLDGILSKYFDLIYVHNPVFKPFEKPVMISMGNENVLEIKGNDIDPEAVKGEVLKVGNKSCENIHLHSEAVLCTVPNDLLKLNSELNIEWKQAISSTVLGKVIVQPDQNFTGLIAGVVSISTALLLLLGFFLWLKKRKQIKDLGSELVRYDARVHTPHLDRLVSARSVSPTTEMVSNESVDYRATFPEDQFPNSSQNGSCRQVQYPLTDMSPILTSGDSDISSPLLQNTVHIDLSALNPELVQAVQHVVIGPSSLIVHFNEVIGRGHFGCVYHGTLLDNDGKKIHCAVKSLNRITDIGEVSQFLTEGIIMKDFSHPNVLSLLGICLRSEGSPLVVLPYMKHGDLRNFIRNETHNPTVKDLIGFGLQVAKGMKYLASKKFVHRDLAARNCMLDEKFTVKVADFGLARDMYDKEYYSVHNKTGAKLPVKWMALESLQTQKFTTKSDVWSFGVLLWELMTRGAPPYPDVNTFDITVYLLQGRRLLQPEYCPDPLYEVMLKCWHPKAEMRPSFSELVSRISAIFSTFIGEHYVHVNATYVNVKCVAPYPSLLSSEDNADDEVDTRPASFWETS
KDR, sequence (P35968 20-1356): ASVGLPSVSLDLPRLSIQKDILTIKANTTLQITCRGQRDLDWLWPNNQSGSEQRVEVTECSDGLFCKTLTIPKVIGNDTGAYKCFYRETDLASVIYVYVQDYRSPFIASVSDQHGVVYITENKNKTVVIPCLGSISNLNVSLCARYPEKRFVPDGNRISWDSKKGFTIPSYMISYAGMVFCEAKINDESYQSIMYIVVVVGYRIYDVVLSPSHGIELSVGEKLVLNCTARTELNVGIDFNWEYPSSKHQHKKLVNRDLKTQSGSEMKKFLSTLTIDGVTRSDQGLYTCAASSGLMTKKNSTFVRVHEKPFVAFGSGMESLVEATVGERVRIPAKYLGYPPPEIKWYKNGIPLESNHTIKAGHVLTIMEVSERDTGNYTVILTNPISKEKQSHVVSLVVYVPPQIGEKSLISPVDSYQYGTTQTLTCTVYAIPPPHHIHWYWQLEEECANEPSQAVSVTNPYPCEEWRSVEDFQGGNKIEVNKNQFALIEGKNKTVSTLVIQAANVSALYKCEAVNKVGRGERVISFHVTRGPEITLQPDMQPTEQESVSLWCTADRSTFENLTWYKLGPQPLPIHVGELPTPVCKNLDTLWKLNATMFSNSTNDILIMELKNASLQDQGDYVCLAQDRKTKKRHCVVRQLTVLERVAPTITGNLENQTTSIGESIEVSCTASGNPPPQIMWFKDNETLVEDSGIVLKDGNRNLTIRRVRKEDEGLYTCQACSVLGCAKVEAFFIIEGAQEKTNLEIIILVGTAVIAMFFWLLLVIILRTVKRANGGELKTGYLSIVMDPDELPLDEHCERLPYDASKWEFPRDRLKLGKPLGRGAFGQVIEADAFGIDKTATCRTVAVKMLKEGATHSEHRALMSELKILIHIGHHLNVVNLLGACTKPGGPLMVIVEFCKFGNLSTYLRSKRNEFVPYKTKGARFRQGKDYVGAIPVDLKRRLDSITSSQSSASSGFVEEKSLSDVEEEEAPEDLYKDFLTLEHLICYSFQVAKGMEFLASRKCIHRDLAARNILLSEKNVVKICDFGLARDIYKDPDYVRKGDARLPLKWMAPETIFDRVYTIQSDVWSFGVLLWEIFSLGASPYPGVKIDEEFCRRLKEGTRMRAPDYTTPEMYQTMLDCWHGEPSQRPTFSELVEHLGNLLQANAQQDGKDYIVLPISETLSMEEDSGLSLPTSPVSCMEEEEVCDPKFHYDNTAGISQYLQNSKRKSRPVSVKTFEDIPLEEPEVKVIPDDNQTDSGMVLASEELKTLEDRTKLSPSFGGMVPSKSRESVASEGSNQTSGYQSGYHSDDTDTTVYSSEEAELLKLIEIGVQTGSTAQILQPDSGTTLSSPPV

- Ki [1]: < 1000 nM
- Ki [2]: < 1000 nM
- Ki [3]: < 5000 nM
SMILES: O=C(c1nc(-c2oncc2-c2cccc(F)c2F)c[nH]1)N1CC=CC1 [Compound I-38, {4-[4-(2,3-Difluoro-phenyl)-isoxazol-5-yl]-1H-imidazol-2-yl}-(2,5-dihydro-pyrrol-1-yl)-methanone]
